According to patent publication US11542282B2, “Low affinity poly(AD-ribose) polymerase 1 dependent cytotoxic agents” (THE TRUSTEES OF THE UNIVERSITY OF PENNSYLVANIA, priority 2018, dated 2023):

What was measured:
[1] = PET imaging of brain uptake in rhesus macaques; type: in vivo; conditions: intravenous injection, all brain regions, FIG. 5A
Protocol: All animal studies were performed under protocols approved by the University of Pennsylvania Institutional Animal Care and Use Committee. Male rhesus macaques (13-21 year old) were sedated with ketamine/dexdomidor and anesthesia maintained for imaging with 1% isoflurane. Temperature was maintained with a recirculating water warm pad and vital signs such as blood pressure, pulse oximetry, and EKG were monitored continuously. Three rhesus macaques were scanned on the G-PET, a high sensitivity, high resolution PET scanner using gadolinium orthosilicate crystals incorporated into an Anger-logic detector developed for brain imaging. Data was acquired for up to 50 min (6×10 sec, 3×60 sec, 3×120 sec, 3×180 sec, 4×300 sec, and 1 ×600 sec) in list mode after an intravenous injection of 101.6 MBq [^18F]FTT to one of the rhesus macaques, and 91.4-128.8 MBq [^18F]31 to two of the rhesus macaques. A venous blood sample was drawn into a heparinized syringe at 37 min post […] injection for metabolite analysis. […]
(§1) These images are similar to the those obtained and expected with [^18F]FTT (FIG. 5B), showing the PARPi to be non-BBB penetrable. Metabolic stability of [^18F]31 was assessed using the monkey blood from each imaging study and found 42% and 45% of the parent compound intact at 40 min and 37 min, respectively.

[2] = Metabolite analysis of monkey blood from the imaging studies; type: in vivo, rhesus macaques
Protocol: All animal studies were performed under protocols approved by the University of Pennsylvania Institutional Animal Care and Use Committee. Male rhesus macaques (13-21 year old) were sedated with ketamine/dexdomidor and anesthesia maintained for imaging with 1% isoflurane. Temperature was maintained with a recirculating water warm pad and vital signs such as blood pressure, pulse oximetry, and EKG were monitored continuously. Three rhesus macaques were scanned on the G-PET, a high sensitivity, high resolution PET scanner using gadolinium orthosilicate crystals incorporated into an Anger-logic detector developed for brain imaging. […]
The blood samples were centrifuged at 3000 G for 10 min to separate plasma and red blood cells. […] After the supernatant had been separated from the pellet, each portion was counted with a gamma counter (PerkinElmer Wizard 2480) to determine the extraction efficiency. […] The collected HPLC fractions were measured by Gamma Counter for further data analysis. Meanwhile the cold reference was also injected and monitored at 254 nm UV wavelength.
as §1

[3] = Metabolic stability in rodent studies (mice blood and brain); type: in vivo; conditions: 5 min
Protocol: Rodent studies were then performed with [^18F]31, including control and P-gp knockout (k/o) mice models to validate the tracer as a non-P-gp substrate.

PARP-1 = PARP-1 (Homo sapiens, UniProt P09874); assay: PARP-1 radioligand binding in live OVCAR8 cells ([125I]KX1 competition); conditions: for IC50: radioligand binding in OVCAR8 cells
Protocol: (§2) Cells were cultured using standard techniques at 37° C. with 5% CO2 and 15% 02. […] Genetically engineered PARP-1 and PARP-2 double knockout mouse embryonic fibroblast (MEF) were used for cell viability studies with wildtype control. All cells were cultured in RPMI 1640 with 10% FBS and 1% penicillin/streptomycin.
The affinity of each compound for the PARP-1 enzyme was evaluated using a radioligand binding method described in Makvandi, A radiotracer strategy to quantify PARP-1 expression in vivo provides a biomarker that can enable patient selection for PARP inhibitor therapy. Cancer Research 2016. Briefly, OVCAR8 ovarian cancer cells were seeded in 96-well Stripwell plates at a density of 40,000 cells/well 24 hrs prior to the study. On the day of study, compounds were diluted in RPMI to concentrations of 100 μM-0.064 nM. […] Reactions were allowed to equilibrate for 1 hr and were then washed with 200 μL of PBS. Wells were separated and counted on an automatic Wizard gamma counter (Perkin Elmer, Waltham Mass.). […] Experiments were repeated three times with adjusting dose concentrations to increase accuracy of IC50 values.
Compounds 10-17 were evaluated for PARP-1 inhibition using a radioligand binding assay protocol with BRCA1 methylated ovarian cancer cells (OVCAR8) as described above. See, Table 3. […] Compared to 1a, oxaazaspiro analogue 1b performed slightly better with scaffold 10b displaying a PARP-1 binding value of 24.9 nM.

MEF WT cells = assay: Cell viability assay in MEF WT cells; type: cell-based, mouse; conditions: NA = Not applicable, no cell death observed
Protocol: (§3) Genetically engineered PARP-1 and PARP-2 double knockout mouse embryonic fibroblast (MEF) were used for cell viability studies with wildtype control.
(§4) Cell viability assays were carried out using four cell lines including OVCAR8, MEF wt, MEF PARP-1 (−/−) KO, and MEF PARP-2 (−/−) KO as described in Makvandi cited above. Briefly, cells were seeded in black wall clear bottom 96-well plates at concentrations of 1,000 cells/well. […] Plates were read on an Enspire multimode plate reader (Perkin Elmer). Data was normalized to percent survival at each concentration evaluated by diving the luminescent signal in treated wells vs. the average of vehicle controls. Experiments were repeated three times and all compounds were assayed during each experiment.
(§5) This isogenic model was selected due to the highly conserved nature of the PARP catalytic domain, all-owing investigation in enzyme specificity.

[4] = tested on: MEF PARP-1 (-/-) KO cells; assay: Cell viability assay in MEF PARP-1 KO-/- cells; type: cell-based; conditions: Mus musculus, NA = Not applicable, no cell death observed
Protocol: as §3, §4, §5
Enzyme dependency of selected compounds in MEF PARP-1 KO−/− cells (FIG. 2B) was performed as described above in order to identify if these analogues act through other cellular targets.

[5] = tested on: MEF PARP-2 (-/-) KO cells; assay: Cell viability assay in MEF PARP-2 KO-/- cells; type: cell-based, mouse; conditions: Mus musculus, NA = Not applicable, no cell death observed
Protocol: as §3, §4, §5
The cell cytotoxicity profile of these selected compounds in MEF PARP-2 KO−/− cell lines was then analyzed as described above.

OVCAR8 cells = assay: Cell viability / cytotoxicity assay in OVCAR8 cells (CellTiter Glo); type: cell-based; conditions: Homo sapiens, OVCAR-8, Table 4
Protocol: as §2
Cell viability assays were carried out using four cell lines including OVCAR8, MEF wt, MEF PARP-1 (−/−) KO, and MEF PARP-2 (−/−) KO as described in Makvandi cited above. Briefly, cells were seeded in black wall clear bottom 96-well plates at concentrations of 1,000 cells/well. After 24 h, cells were then treated with concentrations from 100-0.016 μM. Cells were incubated with compounds for 4-7 days and then assayed for cell viability using the luminescent based assay, CellTiter Glo (Promega, Waltham Mass.). Plates were read on an Enspire multimode plate reader (Perkin Elmer). Data was normalized to percent survival at each concentration evaluated by diving the luminescent signal in treated wells vs. the average of vehicle controls. Experiments were repeated three times and all compounds were assayed during each experiment.
Cytotoxicity was then examined in OVCAR8 cells at 1, 10 and 100 μm concentrations as described above. See, FIGS. 1A-1C.
EC50 values of compounds 18-103 were obtained using OVCAR8 cells. See, Table 4.

PARP-1, sequence (P09874 whole entry): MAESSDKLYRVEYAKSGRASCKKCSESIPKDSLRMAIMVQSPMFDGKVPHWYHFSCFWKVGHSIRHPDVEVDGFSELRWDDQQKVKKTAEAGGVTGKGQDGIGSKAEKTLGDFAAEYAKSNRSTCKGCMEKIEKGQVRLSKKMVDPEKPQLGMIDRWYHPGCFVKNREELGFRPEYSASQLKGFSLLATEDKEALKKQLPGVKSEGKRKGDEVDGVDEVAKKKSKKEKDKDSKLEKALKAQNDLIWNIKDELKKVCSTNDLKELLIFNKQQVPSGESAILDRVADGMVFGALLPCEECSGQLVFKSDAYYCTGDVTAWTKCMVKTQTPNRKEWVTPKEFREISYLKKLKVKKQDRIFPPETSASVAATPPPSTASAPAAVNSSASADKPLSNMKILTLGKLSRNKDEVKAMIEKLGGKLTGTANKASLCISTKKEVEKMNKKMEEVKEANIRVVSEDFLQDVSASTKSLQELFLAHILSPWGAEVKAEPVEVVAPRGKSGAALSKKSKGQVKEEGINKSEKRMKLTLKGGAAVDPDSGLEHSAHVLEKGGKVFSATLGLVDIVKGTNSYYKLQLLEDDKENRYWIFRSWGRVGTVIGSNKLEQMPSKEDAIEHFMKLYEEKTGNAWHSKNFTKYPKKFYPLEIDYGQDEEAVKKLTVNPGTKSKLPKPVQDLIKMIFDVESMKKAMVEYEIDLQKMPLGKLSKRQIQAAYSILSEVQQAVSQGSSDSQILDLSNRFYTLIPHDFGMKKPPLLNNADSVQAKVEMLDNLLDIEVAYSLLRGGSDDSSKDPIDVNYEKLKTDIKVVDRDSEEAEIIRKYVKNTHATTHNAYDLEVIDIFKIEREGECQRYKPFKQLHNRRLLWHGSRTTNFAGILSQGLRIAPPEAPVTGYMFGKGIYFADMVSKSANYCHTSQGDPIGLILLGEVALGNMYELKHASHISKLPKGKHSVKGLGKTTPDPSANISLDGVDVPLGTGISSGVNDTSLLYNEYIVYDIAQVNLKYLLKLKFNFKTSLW

Structure (SMILES) | EC50 (PARP-1) | IC50 (PARP-1) | EC50 (MEF WT cells; Mus musculus) | EC50 [4] | EC50 [5] | further results
O=C(c1cc(Cc2n[nH]c(=O)c3ccccc23)ccc1F)N1CCC(OCC[18F])CC1 [[^18F]31] |  |  |  |  |  | brain uptake (PET) [1]: low brain uptake; brain uptake (PET) ([1]; listed as [18F]31): no appreciable brain uptake; parent compound intact ([2]; 37 min): 45%; parent compound intact ([2]; 40 min): 42%; decomposition of the parent compound [3]: over 80%
CC(C)(C)OC(=O)N1CCC2(CC1)CCN(C(=O)c1cc(Cc3n[nH]c(=O)c4ccccc34)ccc1F)CC2 [Compound 17b, Tert-butyl 9-(2-fluoro-5-((4-oxo-3,4-dihydrophthalazin-1-yl)methyl)benzoyl)-3,9-diazaspiro[5.5]undecane-3-carboxylate] | 0.453 µM | 0.453 µM | 16.9 µM | 43.4 µM | 19.2 µM | 
CC(C)(C)OC(=O)N1CCC2(CC1)CN(C(=O)c1cc(Cc3n[nH]c(=O)c4ccccc34)ccc1F)C2 [Compound 12b, Tert-butyl 2-(2-fluoro-5-((4-oxo-3,4-dihydrophthalazin-1-yl)methyl)benzoyl)-2,7-diazaspiro[3.5]nonane-7-carboxylate] | 3.12 µM | 3.12 µM | ~23 µM | 49.2 µM | 41.5 µM | EC50 (MEF WT cells): 23.4 µM
O=C(c1cc(Cc2n[nH]c(=O)c3ccccc23)ccc1F)N1CC2(CCCCC2)C1 [Compound 12a, 4-(4-Fluoro-3-(2-azaspiro[3.5]nonane-2-carbonyl)benzyl)phthalazin-1(2H)-one] | 0.0654 ± 0.0015 µM |  | 25.6 µM | 48.3 µM | 39.9 µM | 
CC(C)(C)OC(=O)N1CCC2(CC1)CCN(C(=O)c1cc(Cc3n[nH]c(=O)c4ccccc34)ccc1F)C2 [Compound 16b, Tert-butyl 2-(2-fluoro-5-((4-oxo-3,4-dihydrophthalazin-1-yl)methyl)benzoyl)-2,8-diazaspiro[4.5]decane-8-carboxylate] | 1.1 µM |  | 9.4 µM | 45.9 µM | 31.6 µM | 
O=C(c1cc(Cc2n[nH]c(=O)c3ccccc23)ccc1F)N1CCC2(CCCCC2)C1 [Compound 16a, 4-(4-Fluoro-3-(2-azaspiro[4.5]decane-2-carbonyl)benzyl)phthalazin-1(2H)-one] | 0.1414 ± 0.0013 µM |  | 42.7 µM | 51.6 µM | 46.8 µM | 
CC(C)(C)OC(=O)N1CCC2(CCN(C(=O)c3cc(Cc4n[nH]c(=O)c5ccccc45)ccc3F)C2)C1 (stereo not shown) [Compound 15b, Tert-butyl 7-(2-fluoro-5-((4-oxo-3,4-dihydrophthalazin-1-yl)methyl)benzoyl)-2,7-diazaspiro[4.4]nonane-2-carboxylate] | 4.4 µM | 4.4 µM | 17.2 µM | 46.4 µM | 23.4 µM | fold lower PARP-1 affinity compared to the methylene congener (PARP-1; 10c vs 10a, 15b vs 15a): ~85 fold
O=C(c1cc(Cc2n[nH]c(=O)c3ccccc23)ccc1F)N1CCC(OCCF)CC1 [Compound 31, 4-(4-fluoro-3-(4-(2-fluoroethoxy)piperidine-1-carbonyl)benzyl)phthalazin-1(2H)-one] | 0.00395 ± 0.0012 µM |  |  |  |  | EC50 (OVCAR8 cells): 17.1 ± 1.2 µM
O=C(c1cc(Cc2n[nH]c(=O)c3ccccc23)ccc1F)N1CCC2(CC1)CCN(C(=O)C1CC1)CC2 [Compound 17d, 4-(3-(9-(Cyclopropanecarbonyl)-3,9-diazaspiro[5.5]undecane-3-carbonyl)-4-fluorobenzyl)phthalazin-1(2H)-one] | 0.0443 µM | 0.0443 µM | 24.8 µM | 49.7 µM | 21.6 µM | 
COC1CCN(C(=O)c2cc(Cc3n[nH]c(=O)c4ccccc34)ccc2F)C1 (stereo not shown) [Compound 24] | 0.00421 ± 0.0011 µM |  |  |  |  | EC50 (OVCAR8 cells): 37.3 ± 1.2 µM
